In PubChem BioAssay AID1996:
≈ marks a conversion by molar mass, not a printed value.

conditions: buffer; pH 7.4; 200.0 µM

| SMILES | solubility kinetic |
| --- | --- |
| CC(=O)Nc1ccc(-c2csc(-c3cccnc3)n2)cc1 | 5.9 µg/mL (≈ 20 µM) |
| O=C(NC1CCN(C(=O)Nc2cccc(Cl)c2)CC1)c1ccccc1 | 0.4 µg/mL (≈ 1.12 µM) |
| CCC(Sc1nc(C)cc(C)n1)C(=O)Nc1nccs1 (stereo unspecified) | 43.1 µg/mL (≈ 140 µM) |
| COc1ccc(-c2cc(C(=O)NC3CCCC3)c3ccccc3n2)cc1OC | 1.6 µg/mL (≈ 4.25 µM) |
| Oc1ccc(-c2nc3ccccc3s2)cc1 | 6.6 µg/mL (≈ 29 µM) |
| CCN(C(=O)CSc1ncccn1)c1cccc2ccccc12 | > 48.5 µg/mL |
| O=C(Nc1cccnc1)c1cc2cc(Br)ccc2o1 | 0.9 µg/mL (≈ 2.84 µM) |
| O=C(CCCc1ccccc1)NCCc1ccc(F)cc1 | 39.6 µg/mL (≈ 139 µM) |
| CCCOC(=O)Nc1nc(-c2ccc(C)cc2)c(C)s1 | 1.3 µg/mL (≈ 4.48 µM) |
| Cc1ccccc1CC(=O)N1CCOCC1 | > 32.9 µg/mL |
| O=P(C(=NCCO)NO)(N1CCOCC1)N1CCOCC1 | > 48.3 µg/mL |
| CCCn1c(=O)c(C(=O)Nc2cccc(C)c2)c(O)c2ccccc21 | < 0.4 µg/mL |
| O=C(Cn1c(C(=O)OCCO)cc2ccccc21)c1ccccc1 | 6.8 µg/mL (≈ 21 µM) |
| Fc1cnc(Cl)nc1NC1CCCCC1 | 27.1 µg/mL (≈ 118 µM) |
| COCCNC(=O)CSc1ccccc1C(=O)O | > 40.4 µg/mL |
| CCCN1CCC(NC(=O)C2CCCCC2C(=O)O)CC1 (stereo unspecified) | > 44.5 µg/mL |
| CCC1Oc2ccccc2N(CC(=O)N2CCOCC2)C1=O (stereo unspecified) | > 45.7 µg/mL |
| Cc1cc(NC(=O)C(C)SCC(=O)N(C)Cc2c(F)cccc2Cl)no1 (stereo unspecified) | > 60 µg/mL |
| O=C(NCc1ccccc1CN1CCCC1)c1cc2ccccc2o1 | > 50.2 µg/mL |
| Cc1[nH]n(-c2ccccc2)c(=O)c1/C=N/NC(=O)c1cccc(F)c1 | > 50.8 µg/mL |
| CC1CCCCN1C(=O)CSc1nc(C2CC2)nc2ccccc12 (stereo unspecified) | > 51.2 µg/mL |
| CCN(Cc1ccccc1)C(=O)CSc1n[nH]c(N)n1 | > 43.7 µg/mL |

| SMILES | solubility kinetic |
| --- | --- |
| Cc1ccc(N2CC(C(=O)Nc3ccccc3N3CCCC3)CC2=O)cc1 (stereo unspecified) | 21.4 µg/mL (≈ 58.9 µM) |
| CC1CNCCN1S(=O)(=O)c1cccc2cnccc12.Cl (stereo unspecified) | > 54.6 µg/mL |
| CC1CC(C)CN(C(=O)c2cccc(S(=O)(=O)NCc3ccccc3)c2)C1 (stereo unspecified) | > 58 µg/mL |
| O=C(NC(=S)Nc1ccc([N+](=O)[O-])cc1O)C1CCCCC1 | 3.5 µg/mL (≈ 10.8 µM) |
| CCC(NC(=O)c1cncc(Br)c1)c1ccccc1 (stereo unspecified) | > 47.9 µg/mL |
| CCC(CC)c1nnc(NC(=O)c2cccc(S(=O)(=O)N3CCOCC3)c2)s1 | > 63.7 µg/mL |
| Cc1onc(-c2c(F)cccc2Cl)c1C(=O)c1ccc(F)cc1 | 9.1 µg/mL (≈ 27.3 µM) |
| CCOc1ccc(/C=C/C(=O)N2CCOCC2)cc1OC | > 43.7 µg/mL |
| CCOC(=O)c1cnc2[nH]c3ccccc3n2c1=O | 23 µg/mL (≈ 89.4 µM) |
| Cc1cc(NC(=O)CN2CCN(C)CC2)no1 | 22.4 µg/mL (≈ 94 µM) |
| CC(=O)Nc1ccc2nc(NC(=O)c3cccnc3)sc2c1 | 7.4 µg/mL (≈ 23.7 µM) |
| CCCNC(=O)CN1CCC(c2nc3ccccc3[nH]2)CC1 | 34 µg/mL (≈ 113 µM) |
| Cc1cccc(NC(=O)c2cc3ccccc3nc2C)c1 | 29.3 µg/mL (≈ 106 µM) |
| CCCn1c(SCC(=O)N2CCc3ccccc3C2)nc(O)cc1=O | > 53.9 µg/mL |
| Cc1cccc(NC(=O)C2CCN(C(=O)c3ccco3)CC2)c1C | > 49 µg/mL |
| O=Cc1c(NCCc2cccc(F)c2)c2ccccc2[nH]c1=O | 9.3 µg/mL (≈ 30 µM) |
| O=C(CSc1nc(O)c(Cc2ccccc2)c(=O)[nH]1)c1ccccc1 | > 52.9 µg/mL |
| C=CCOc1ccc(/C=C2\SC(N)=NC2=O)cc1OC | 5.7 µg/mL (≈ 19.6 µM) |
| C=CCNC(=S)Nc1sc2c(c1C(N)=O)CCCC2 | 18.2 µg/mL (≈ 61.6 µM) |
| Cc1cc(NC(=O)COC(=O)/C=C/c2ccc(C)o2)no1 | 1.8 µg/mL (≈ 6.2 µM) |
| CC(Sc1ccc([N+](=O)[O-])cn1)C(=O)Nc1nccs1 (stereo unspecified) | 5 µg/mL (≈ 16.1 µM) |
| CN(C(=S)Nc1cccnc1)c1ccc(O)cc1 | 29 µg/mL (≈ 112 µM) |

| SMILES | solubility kinetic |
| --- | --- |
| Cn1c(N)c(C(=O)Nc2ccc(-c3ccccc3)cc2)sc1=S | 0.6 µg/mL (≈ 1.76 µM) |
| CCNc1nc(NC(C)C)nc(N(C)C#N)n1 | > 35.3 µg/mL |
| COCCNC(=S)N(c1ccccc1)C(C)C | > 37.9 µg/mL |
| COc1ccc(-c2csc(N(C)C(=O)c3ccco3)n2)cc1 | < 0.3 µg/mL |
| O=C(Cc1ccccc1F)Nc1nc2ccccc2[nH]1 | 2.7 µg/mL (≈ 10 µM) |
| O=C(NCCS(=O)(=O)N1CCCCC1)c1ccccc1 | > 44.5 µg/mL |
| O=C(CN1CCCCCC1)Nc1ccccc1[N+](=O)[O-] | 14 µg/mL (≈ 50.5 µM) |
| Cc1nc2ccccn2c1C(=O)CSc1cccc(Cl)c1 | 3.9 µg/mL (≈ 12.3 µM) |
| O=C(Nc1ccccc1)OCCOc1ccccc1Br | < 0.7 µg/mL |
| COc1ccc(NC(=O)c2oc3ccccc3c2C)cn1 | 4 µg/mL (≈ 14.2 µM) |
| Cc1cccc(-c2nc(C#N)c(N3CCC(C)CC3)o2)c1 | < 0.2 µg/mL |
| COc1ccc(C(=O)OCC(=O)c2ccc3c(c2)NC(=O)CO3)cc1OC | 10.8 µg/mL (≈ 29.1 µM) |
| C=CCOc1cccc(CNCc2ccncc2)c1 | 28 µg/mL (≈ 110 µM) |
| CC(=O)c1c(C)[nH]c(C(=O)Nc2ccc(Cl)cc2)c1C | 2.2 µg/mL (≈ 7.57 µM) |
| Cc1csc(=O)n1CC(=O)Nc1ccc(S(C)(=O)=O)cc1 | > 49 µg/mL |
| Cc1ccc(NC(=O)C2CCCN(c3cnccn3)C2)c(C)c1 (stereo unspecified) | > 46.6 µg/mL |
| CSc1ccccc1NC(=O)COC(=O)/C=C/c1ccco1 | 16.9 µg/mL (≈ 53.3 µM) |
| COCC(C)n1c(C)cc(C(=O)COC(=O)c2nn(C)c(=O)c3ccccc23)c1C (stereo unspecified) | > 61.7 µg/mL |
| CN1C(=O)c2ccc(C(=O)NCc3ccccn3)cc2C1=O | > 44.3 µg/mL |
| CCSc1nc2ccccc2c(=O)n1Cc1ccc(F)cc1 | < 0.3 µg/mL |
| Cc1ccc(S(=O)(=O)N2CCCc3ccccc32)cc1C | 2.3 µg/mL (≈ 7.63 µM) |
| CCOC(=O)c1cc(C)[nH]c1C | 24.7 µg/mL (≈ 148 µM) |

| SMILES | solubility kinetic |
| --- | --- |
| O=C(Nc1ccc(OC(F)(F)F)cc1)Oc1ccccc1N1CCCCC1 | 9.7 µg/mL (≈ 25.5 µM) |
| Nc1nc(NCC2CCCO2)nc(Nc2ccccc2F)c1[N+](=O)[O-] (stereo unspecified) | 0.6 µg/mL (≈ 1.72 µM) |
| O=S(=O)(NCCCc1ccccc1)c1ccc(Br)cc1 | 10.7 µg/mL (≈ 30.2 µM) |
| O=C(c1cc2c(ccc3ccccc32)o1)N1CCCCC1 | 2.6 µg/mL (≈ 9.31 µM) |
| COC(=O)c1nn(-c2cccc(C(F)(F)F)c2)ccc1=O | > 44.7 µg/mL |
| CN(CCO)c1nc(N)c2c(N)nc3c(c2c1C#N)CC(=O)N3C1CCCC1 | 10.7 µg/mL (≈ 28.1 µM) |
| O=C(Nc1ccccc1)[C@@H]1CCCN1S(=O)(=O)c1ccc(Cl)cc1 | 6.8 µg/mL (≈ 18.6 µM) |
| COc1ccc(CNC(=O)CSc2nccn(-c3ccc(F)c(F)c3)c2=O)cc1 | 12.4 µg/mL (≈ 29.7 µM) |
| O=C(OCc1ccc(F)cc1)c1cccnc1Cl | 21.7 µg/mL (≈ 81.7 µM) |
| C=CCn1c(O)c(C(C)=NCCCN(C)C)c(=O)[nH]c1=O | > 44.2 µg/mL |
| O=C(CN1CCCCC1)Nc1scc2c1c(=O)oc1ccccc12 | < 0.4 µg/mL |
| CCOC(=O)Nc1cccc(NC(=O)c2ccccc2F)c1 | > 45.3 µg/mL |
| Cc1cccc(C(=O)O)c1NC(=O)Cc1cccc2ccccc12 | > 47.9 µg/mL |
| O=C(CN1C(=O)C2CC=CCC2C1=O)N1CCN(S(=O)(=O)c2ccccc2)CC1 (stereo unspecified) | > 62.6 µg/mL |
| COc1ccc(CCNC(=O)COC(=O)Cc2c[nH]c3ccccc23)cc1OC | 47 µg/mL (≈ 119 µM) |
| Clc1ccc(OCC#CCN2CCOCC2)cc1.O=C(O)C(=O)O | 50.3 µg/mL |
| N#C/C(=C\c1c(F)cccc1Cl)S(=O)(=O)c1ccccn1 | 36.2 µg/mL (≈ 112 µM) |
| O=C(Oc1ccc(OC(=O)N2CCCCC2)cc1)N1CCCCC1 | 1.1 µg/mL (≈ 3.31 µM) |
| O=C1c2cccc3c([N+](=O)[O-])ccc(c23)C(=O)N1CCc1ccccn1 | 0.4 µg/mL (≈ 1.15 µM) |
| CN(C(=O)c1cc2ccccc2cc1O)C1CCCCC1 | 40.6 µg/mL (≈ 143 µM) |
